EP4806894A1, “TNAP INHIBITORY COMPOUND AND USE THEREOF” (Rednvia Co., Ltd., priority 2023, dated 2025)
Counter-ions that a name gives are not always drawn.

Key:
TNAP = molecular target: T1, TNAP (Homo sapiens, UniProt P05186); assay: TNAP inhibitory activity, colorimetric assay (alkaline phosphatase assay kit ab83369, pNPP substrate); format: biochemical; conditions: TNAP enzyme, 2 hours at room temperature, absorbance 405 nm
T1 sequence (P05186 18-502 limits assumed): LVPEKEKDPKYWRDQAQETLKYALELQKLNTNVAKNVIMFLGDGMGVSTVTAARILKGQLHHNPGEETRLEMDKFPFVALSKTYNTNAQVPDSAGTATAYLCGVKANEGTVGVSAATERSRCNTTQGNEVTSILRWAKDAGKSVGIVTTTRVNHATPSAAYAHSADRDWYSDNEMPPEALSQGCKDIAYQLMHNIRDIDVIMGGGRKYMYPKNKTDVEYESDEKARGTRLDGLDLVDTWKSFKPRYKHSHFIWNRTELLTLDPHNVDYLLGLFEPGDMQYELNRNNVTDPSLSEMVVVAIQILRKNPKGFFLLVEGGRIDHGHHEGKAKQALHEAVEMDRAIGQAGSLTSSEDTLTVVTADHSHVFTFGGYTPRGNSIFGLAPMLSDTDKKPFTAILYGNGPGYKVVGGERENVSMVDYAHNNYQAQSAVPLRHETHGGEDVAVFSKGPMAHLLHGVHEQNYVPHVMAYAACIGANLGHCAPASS
Protocol: The TNAP inhibitory activity of the compounds according to the present invention was analyzed by colorimetric assay.
The experiments were performed according to the protocol of the alkaline phosphatase assay kit ab83369.
TNAP enzyme at a concentration of 0.2 ng/µl was dispensed into a 96-well plate (Costar) (10 µl/well), to which the 10-fold diluted test substance was added (15 µl/well). The plate was incubated at room temperature, shielded from light, for 10 minutes to allow the enzyme and compound to act. After incubation, 125 µl of 1 mM substrate (pNPP) was added to each well of the plate, and the plate was incubated for 2 hours at room temperature in a darkened state to allow the enzyme, substrate, and test compound to act. Absorbance was measured at 405 nm using a microplate reader (Tecan spark), and IC50 was calculated using GraphPad Prism 9. The amount of p-nitrophenol produced was calculated through the absorbance, and the degree of TNAP activity inhibition was evaluated through the degree of inhibition of p-nitrophenol production, and the concentration of the compound that inhibited 50% was calculated as the IC50 value.

saos-2 cells = assay: Anticalcification efficacy in saos-2 cells (osteogenic medium, Alizarin Red staining); format: cell-based; conditions: Homo sapiens, 168 h, test compound 1 µM, 7 days osteogenic medium, Alizarin Red absorbance 540 nm, read-out: calcification inhibition
Protocol: To confirm the inhibitory effect of calcification in saos-2 cells in which calcification is induced by overexpression of TNAP, saos-2 cells were cultured in a culture medium in an incubator at 37°C, 95% humidity, and 5% CO2. RPMI-1640 (Corning) supplemented with 10% FBS (Gibco) and 1% Pen/Strep (Gibco) was used as the culture medium.
Saos-2 cells were seeded in a 48-well plate at the density of 1.5 x 10^4 cells/well and used in the experiment when they reached 80-90% confluence after stabilization for 2 days.
After saos-2 cells were cultured in a 48-well plate to 80-90% confluence, the culture medium was removed and replaced with an osteogenic medium (OM). DMEM (Gibco) containing 10% FBS, 1% Pen/Strep, 100 nM dexamethasone (Sigma), 10 mM β-glycerophosphate (Sigma), and 0.05 mM L-ascorbic acid (Sigma) was used as the OM. Osteogenic differentiation of saos-2 cells by OM was induced for 7 days, and OM was replaced every 2 to 3 days.
When inducing calcification through OM in saos-2 cells, the cells were treated with concentrations of […] of the TNAP inhibitor test compounds with the OM replacement cycle, except for the control group (OM).
After 7 days of OM induction, the medium was removed from each well and the plate was washed twice with PBS. Cells were fixed with 4% paraformaldehyde for 1 hour, then the fixative was removed and washed twice with deionized water (DW). ARS solution was added to the plate and shaken for 1 hour to stain the cells. When the cells were sufficiently stained red, the dye was removed, the cells were washed carefully with DW, dried, and then photographs were taken of the stained cells. The red-stained area represents calcification induced by OM, and the degree of calcification was determined based on the degree of redness. To quantify this, 10% cetylpyridinium chloride was dispensed into the wells and the dye was dissolved. The dye-dissolved solution was transferred to each well of a 96 well plate and absorbance was measured at 540 nm.
The degree of decrease in the measured absorbance by the test compounds based on the absorbance for OM was evaluated as the degree of inhibition of calcification.

| SMILES | IC50 (TNAP) [nM] | inhibition at 1 µM (saos-2 cells) [%] |
| --- | --- | --- |
| O=C1NCCc2ncc(NS(=O)(=O)c3cc(-c4ccc(C5(C(=O)O)CC5)cc4)cc4c3OCC4)cc21 [Example 38, 1-(4-(7-(N-(5-oxo-5,6,7,8-tetrahydro-1,6-naphthyridine-3-yl)sulfamoyl)-2,3-dihydrobenzofuran-5-yl)phenyl)cyclopropane-1-carboxylic acid] | ≥ 1000 | < 0 |
| NCc1ccc(-c2cc(F)cc(F)c2S(=O)(=O)Nc2cnc3c(c2)C(=O)NCC3)cc1 [Example 40, 4'-(aminomethyl)-3,5-difluoro-N-(5-oxo-5,6,7,8-tetrahydro-1,6-naphthyridine-3-yl)-[1,1'-biphenyl]-2-sulfonamide hydrochloride] | ≥ 1000 | < 0 |
| NCc1ccc(-c2cc3c(c(S(=O)(=O)Nc4cnc5c(c4)C(=O)NCC5)c2)OCC3)cc1 [Example 41, 5-(4-(aminomethyl)phenyl)-N-(5-oxo-5,6,7,8-tetrahydro-1,6-naphthyridine-3-yl)-2,3-dihydrobenzofuran-7-sulfonamide] | ≥ 1000 | < 0 |
| CCOC(=O)C(C)n1cc(-c2ccc(OC)c(S(=O)(=O)Nc3cnc4c(c3)C(=O)NCC4)c2)cn1 (stereo not shown) [Example 42, ethyl 2-(4-(4-methoxy-3-(N-(5-oxo-5,6,7,8-tetrahydro-1,6-naphthyridine-3-yl)sulfamoyl)phenyl)-1H-pyrazole-1-yl)propanoate] | ≤ 10 | ≥ 50 |
| COc1ccc(-c2cnn(C(C)C(=O)O)c2)cc1S(=O)(=O)Nc1cnc2c(c1)C(=O)NCC2 (stereo not shown) [Example 43, 2-(4-(4-methoxy-3-(N-(5-oxo-5,6,7,8-tetrahydro-1,6-naphthyridine-3-yl)sulfamoyl)phenyl)-1H-pyrazole-1-yl)propanoic acid] | 10 to 100 | ≥ 50 |
| COc1ccc(-c2cnc(N)nc2)cc1S(=O)(=O)Nc1cnc2c(c1)C(=O)NCC2 [Example 44, 5-(2-aminopyrimidine-5-yl)-2-methoxy-N-(5-oxo-5,6,7,8-tetrahydro-1,6-naphthyridine-3-yl)benzenesulfonamide] | 100 to 1000 | ≥ 50 |

Now from value to molecule, other results behind:

| IC50 (TNAP) [nM] | SMILES | inhibition at 1 µM (saos-2 cells) [%] |
| --- | --- | --- |
| 100 to 1000 | COc1ccc(-c2cnn3ccccc23)cc1S(=O)(=O)Nc1cnc2c(c1)C(=O)NCC2 [Example 45, 2-methoxy-N-(5-oxo-5,6,7,8-tetrahydro-1,6-naphthyridine-3-yl)-5-(pyrazolo[1,5-a]pyridine-3-yl)benzenesulfonamide] | ≥ 50 |
| 100 to 1000 | COc1ccc(-c2cc(F)c(O)c(F)c2)cc1S(=O)(=O)Nc1cnc2c(c1)C(=O)NCC2 [Example 46, 3',5'-difluoro-4'-hydroxy-4-methoxy-N-(5-oxo-5,6,7,8-tetrahydro-1,6-naphthyridine-3-yl)-[1,1'-biphenyl]-3-sulfonamide] | ≥ 50 |
| 100 to 1000 | COc1ccc(-c2cnn(CC(=O)OC(C)(C)C)c2)cc1S(=O)(=O)Nc1cnc2c(c1)C(=O)NCC2 [Example 47, tert-butyl 2-(4-(4-methoxy-3-(N-(5-oxo-5,6,7,8-tetrahydro-1,6-naphthyridine-3-yl)sulfamoyl)phenyl)-1H-pyrazole-1-yl)acetate] | ≥ 50 |
| 10 to 100 | COc1ccc(-c2cnn(CC(=O)O)c2)cc1S(=O)(=O)Nc1cnc2c(c1)C(=O)NCC2 [Example 48, 2-(4-(4-methoxy-3-(N-(5-oxo-5,6,7,8-tetrahydro-1,6-naphthyridine-3-yl)sulfamoyl)phenyl)-1H-pyrazole-1-yl)acetic acid] | ≥ 50 |
| 10 to 100 | CCOC(=O)CCc1ccc(-c2ccc(OC)c(S(=O)(=O)Nc3cnc4c(c3)C(=O)NCC4)c2)cc1 [Example 49, ethyl 3-(4'-methoxy-3'-(N-(5-oxo-5,6,7,8-tetrahydro-1,6-naphthyridine-3-yl)sulfamoyl)-[1,1'-biphenyl]-4-yl)propanoate] | ≥ 50 |
